Among the data in paper PMC9064607 (Biochemistry, 2022) are Kd values, retold here.

The target in the assay is T1, Peptidylglycine monooxygenase (PHM) (Rattus norvegicus, UniProt P14925).
T1 sequence (P14925 42-356): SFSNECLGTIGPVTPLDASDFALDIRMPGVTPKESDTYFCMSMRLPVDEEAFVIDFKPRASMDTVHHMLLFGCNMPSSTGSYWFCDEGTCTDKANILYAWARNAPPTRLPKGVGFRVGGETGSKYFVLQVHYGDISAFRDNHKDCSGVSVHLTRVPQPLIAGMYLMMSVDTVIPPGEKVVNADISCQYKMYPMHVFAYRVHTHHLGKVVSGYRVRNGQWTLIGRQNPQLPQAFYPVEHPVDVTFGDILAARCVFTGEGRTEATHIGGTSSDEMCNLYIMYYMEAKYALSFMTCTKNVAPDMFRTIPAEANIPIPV
The experiment in a line: chemical-quench product formation versus ascorbate, fitted to a binding event. Format: biochemical.

In turn, `O=C1O[C@H]([C@@H](O)CO)C(O)=C1O` [ascorbate] had a Kd of 117 µM.

By Kd is commonly meant the constant that tells how readily two partners part at equilibrium. A high value points to weaker binding.
